Patent publication US6448205B1, “Substituted 2-phenylpyridine as herbicide” (BASF Aktiengesellschaft, priority 1996, dated 2002)

melting point: 118 °C
SMILES: COc1cc(-c2ncc([S+](C)[O-])cc2Cl)c(F)cc1Cl (stereo not shown) [No. 6, 3-Chloro-2-(4-chloro-2-fluoro-5-methoxyphenyl)-5-methylsulfinylpyridine]
